According to ChEMBL document CHEMBL4342494 (ACS Med Chem Lett, 2020):

Legend:
D(2) dopamine receptor [1] = molecular target: T1, D(2) dopamine receptor (Homo sapiens, UniProt P14416); test: Agonist activity at D2 long receptor (unknown origin) transfected in human HEK293T cells assessed as increase in cAMP accumulation incubated for 2 hrs by cAMP Glo-sensor assay; format: functional, cell-based
D(1A) dopamine receptor [2] = molecular target: T2, D(1A) dopamine receptor (Homo sapiens, UniProt P21728); test: Agonist activity at D1R (unknown origin) transfected in human HEK293T cells assessed as increase in cAMP accumulation incubated for 2 hrs by cAMP Glo-sensor assay; format: functional, cell-based
D(2) dopamine receptor [3] = molecular target: T1, D(2) dopamine receptor
D(1A) dopamine receptor [4] = molecular target: T2, D(1A) dopamine receptor; test: Agonist activity at C-terminal RLuc8-fused D1R (unknown origin) transfected in human HEK293T cells co-expressing N-terminal Venus-tagged beta-arrestin2 assessed as increase in beta-arrestin2 recruitment measured after 5 mins in presence of coelenterazine H by BRET assay; format: cell-based
D(2) dopamine receptor [5] = molecular target: T1, D(2) dopamine receptor; remark: listed apart in the source
D(1A) dopamine receptor [6] = molecular target: T2, D(1A) dopamine receptor

T2 sequence (P21728 whole entry): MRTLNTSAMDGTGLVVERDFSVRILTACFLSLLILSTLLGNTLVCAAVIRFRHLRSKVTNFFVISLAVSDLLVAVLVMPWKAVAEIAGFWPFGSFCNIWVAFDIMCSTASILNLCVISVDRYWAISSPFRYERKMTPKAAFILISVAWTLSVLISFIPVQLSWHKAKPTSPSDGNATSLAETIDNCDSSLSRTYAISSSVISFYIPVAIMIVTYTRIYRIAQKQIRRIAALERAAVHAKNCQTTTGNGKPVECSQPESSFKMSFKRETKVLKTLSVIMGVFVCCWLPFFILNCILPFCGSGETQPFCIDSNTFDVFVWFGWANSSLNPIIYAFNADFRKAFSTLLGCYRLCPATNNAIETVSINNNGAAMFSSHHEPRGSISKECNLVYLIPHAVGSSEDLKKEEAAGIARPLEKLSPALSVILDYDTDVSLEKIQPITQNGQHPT
T1 sequence (P14416 whole entry): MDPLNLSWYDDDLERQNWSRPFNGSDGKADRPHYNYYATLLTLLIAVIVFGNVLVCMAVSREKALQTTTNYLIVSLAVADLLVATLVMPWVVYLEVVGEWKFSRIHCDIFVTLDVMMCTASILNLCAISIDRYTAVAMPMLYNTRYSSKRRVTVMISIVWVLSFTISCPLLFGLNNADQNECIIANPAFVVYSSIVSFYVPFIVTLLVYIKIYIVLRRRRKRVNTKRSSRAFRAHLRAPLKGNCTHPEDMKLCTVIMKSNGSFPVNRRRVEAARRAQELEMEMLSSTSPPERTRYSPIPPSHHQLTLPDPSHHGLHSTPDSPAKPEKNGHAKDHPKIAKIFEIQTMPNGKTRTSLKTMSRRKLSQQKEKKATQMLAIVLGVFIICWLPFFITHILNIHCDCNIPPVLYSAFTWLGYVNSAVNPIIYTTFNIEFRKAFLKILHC

Row | SMILES | EC50 (D(2) dopamine receptor [1]; read-out: EC50) [nM] | EC50 (D(2) dopamine receptor [1]; read-out: pEC50 (converted)) [nM] | EC50 (D(1A) dopamine receptor [2]; read-out: EC50) [nM] | EC50 (D(2) dopamine receptor [3]) [nM] | EC50 (D(1A) dopamine receptor [4]; read-out: EC50) [nM] | EC50 (D(1A) dopamine receptor [4]; read-out: pEC50 (converted)) [nM] | log(Tau/KA) (D(2) dopamine receptor [5]) | G-protein bias factor (D(1A) dopamine receptor [6]) | EC50 (D(1A) dopamine receptor [2]; read-out: pEC50 (converted)) [nM]
1 | CN1CCc2cccc3c2[C@H]1Cc1ccc2c(c1-3)OCO2 | > 10000 | > 10000 | 112 | 102 | > 10000 | > 10000 |  |  | 
2 | CCc1cc2c(c(OC(C)=O)c1OC(C)=O)-c1cccc3c1[C@@H](C2)N(C)CC3 |  |  | 1550 |  | 0.38 |  |  |  | 
3 | COCOc1ccc2c(c1OCOC)-c1cccc3c1[C@@H](C2)N(C)CC3 |  |  | > 10000 |  | 8.45 |  |  |  | 
4 | CC(=O)Oc1c(Br)cc2c(c1OC(C)=O)-c1cccc3c1[C@@H](C2)N(C)CC3 | > 10000 | > 10000 |  | 1410 |  |  |  |  | 
5 | CC(=O)Oc1c(Cl)cc2c(c1OC(C)=O)-c1cccc3c1[C@@H](C2)N(C)CC3 | > 10000 | > 10000 |  | 604 |  |  |  |  | 
6 | CC(=O)Oc1c(C(C)C)cc2c(c1OC(C)=O)-c1cccc3c1[C@@H](C2)N(C)CC3 | > 10000 | > 10000 | 951 | > 10000 | > 10000 | > 10000 |  |  | 
7 | CCCN1CCc2cccc3c2[C@H]1Cc1ccc(O)c(O)c1-3 |  |  |  |  |  |  | 0.85 | 19.3 | 
8 | CN1CCc2cccc3c2[C@H]1Cc1ccc(O)c(O)c1-3 |  |  |  |  |  |  | 2.16 | 41.5 | 
9 | COc1cccc(-c2cc3c(c(OC(C)=O)c2OC(C)=O)-c2cccc4c2[C@@H](C3)N(C)CC4)c1 | > 10000 | > 10000 | 669 |  | 41.4 |  |  |  | 661
